From patent US20120263739A1, “ANTI INTEGRIN ANTIBODIES LINKED TO NANOPARTICLES LOADED WITH CHEMOTHERAPEUTIC AGENTS” (MERCK PATENT GMBH, priority 2009, published 2012)
In brackets after ≈: the same amount, converted by molar mass.

Assays:
[1] = tested on: αv-negative M21L cells; experiment: MTT cell viability assay
Protocol: (§1) Cell viability was assessed using the 3-(4,5-dimethylthiazol-2-yl)-2,5-diphenyltetrazolium bromide (MTT) dye reduction assay [27] modified as described before [28].

[2] = tested on: αvβ3-positive M21 melanoma cells; experiment: MTT cell viability assay
Protocol: as §1

[3] = tested on: αvβ3 positive melanoma cells M21 on vitronectin; experiment: Kinetic of cell detachment, transmitted light time lapse microscopy; assay type: cell-based; conditions: total incubation time 1-2 d
Protocol: A parallel detachment kinetic study of the different nanoparticulate formulations or free doxorubicin confirms the cell detachment assay. In this study detachment is observed by transmitted light time lapse microscopy over a period of 1-2 d. Pictures were done every 7 minutes. The detachment time of the cells is measured.
For the determination of cell detachment kinetics, cells were seeded in a vitronectin coated multiwell chamber and incubated with the different nanoparticulate formulations or free doxorubicin in a humidified, CO2-aerated climate chamber at 37° C. Detachment was observed by transmitted light time lapse microscopy over a period of 1-2 d. Pictures were done every 7 minutes. The detachment of the cells was analyzed by manual evaluation of the data.

[4] = tested on: M21 cells; experiment: Cellular uptake and intracellular distribution, confocal laser scanning microscopy; assay type: cell-based; conditions: 10 ng/μl, 4 h at 37° C., CLSM
Protocol: Cellular uptake and intracellular distribution: The cellular uptake and intracellular distribution of these nanoparticulate formulations are shown by confocal laser scanning microscopy (CLSM). αvβ3 integrin-positive M21 melanoma cells are incubated with NP-Dox-DI17E6, with NP-Dox-IgG, or free Doxorubicin (FIG. 5). […] The overlay of the different fluorescence channels (FIG. 6B-D) verifies the intracellular uptake of NP-Dox-DI17E6 (FIG. 6A).
FIG. 5: Cellular uptake and intracellular distribution of nanoparticles studied by confocal laser scanning microscopy (CLSM). M21 cells were cultured on glass slides and treated with 10 ng/μl of the different nanoparticle formulations (referred to DI17E6 concentration or equivalent amount of control nanoparticles) for 4 h at 37° C. The green autofluorescence of the nanoparticles was used for detection and the red autofluorescence of doxorubicin. The cell membranes were stained with Concanavalin A AlexaFluor 350 (blue). Pictures were taken within inner sections of the cells. […]
Cellular uptake and intracellular distribution of the nanoparticles were studied by confocal laser scanning microscopy. […] (concentrations are calculated referred to DI17E6 or equivalent NP amounts as described in 2.5). […] Nanoparticles were detected at 488/520 nm. Doxorubicin was detected by red fluorescence at 488/590 nm.

[5] = molecular target: alpha-v beta-3 integrin on M21 melanoma cells (UniProt P06756); experiment: cell-based or functional assay
Sequence of alpha-v beta-3 integrin on M21 melanoma cells (P06756 31-1048, chain 1 of 2): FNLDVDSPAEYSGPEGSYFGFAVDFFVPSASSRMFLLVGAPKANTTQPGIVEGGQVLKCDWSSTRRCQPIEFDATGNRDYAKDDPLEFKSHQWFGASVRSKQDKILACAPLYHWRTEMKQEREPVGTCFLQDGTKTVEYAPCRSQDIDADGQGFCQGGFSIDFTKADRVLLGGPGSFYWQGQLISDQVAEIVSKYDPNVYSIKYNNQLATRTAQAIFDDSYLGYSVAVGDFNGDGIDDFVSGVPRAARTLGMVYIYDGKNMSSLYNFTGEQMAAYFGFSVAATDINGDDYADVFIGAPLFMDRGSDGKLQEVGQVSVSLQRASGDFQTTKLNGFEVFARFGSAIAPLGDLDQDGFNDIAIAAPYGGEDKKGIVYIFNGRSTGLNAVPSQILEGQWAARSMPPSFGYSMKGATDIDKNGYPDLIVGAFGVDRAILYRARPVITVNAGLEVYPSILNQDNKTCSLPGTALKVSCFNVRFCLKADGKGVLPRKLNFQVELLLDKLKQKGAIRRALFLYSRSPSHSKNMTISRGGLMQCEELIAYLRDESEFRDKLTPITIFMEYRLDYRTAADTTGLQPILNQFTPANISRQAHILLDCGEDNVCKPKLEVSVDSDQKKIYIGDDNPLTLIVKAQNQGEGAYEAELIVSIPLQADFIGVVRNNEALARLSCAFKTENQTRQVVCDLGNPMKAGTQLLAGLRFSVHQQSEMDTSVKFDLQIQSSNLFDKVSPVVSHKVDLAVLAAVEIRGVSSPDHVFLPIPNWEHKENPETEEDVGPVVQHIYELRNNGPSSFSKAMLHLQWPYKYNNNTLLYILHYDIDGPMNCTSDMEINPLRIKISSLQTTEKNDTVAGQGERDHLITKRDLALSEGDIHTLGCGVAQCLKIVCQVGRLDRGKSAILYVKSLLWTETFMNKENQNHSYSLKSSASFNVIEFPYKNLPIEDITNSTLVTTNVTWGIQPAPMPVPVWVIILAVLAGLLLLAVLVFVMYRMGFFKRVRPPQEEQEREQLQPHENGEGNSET
Sequence of alpha-v beta-3 integrin on M21 melanoma cells (P05106 27-788, chain 2 of 2, further chain): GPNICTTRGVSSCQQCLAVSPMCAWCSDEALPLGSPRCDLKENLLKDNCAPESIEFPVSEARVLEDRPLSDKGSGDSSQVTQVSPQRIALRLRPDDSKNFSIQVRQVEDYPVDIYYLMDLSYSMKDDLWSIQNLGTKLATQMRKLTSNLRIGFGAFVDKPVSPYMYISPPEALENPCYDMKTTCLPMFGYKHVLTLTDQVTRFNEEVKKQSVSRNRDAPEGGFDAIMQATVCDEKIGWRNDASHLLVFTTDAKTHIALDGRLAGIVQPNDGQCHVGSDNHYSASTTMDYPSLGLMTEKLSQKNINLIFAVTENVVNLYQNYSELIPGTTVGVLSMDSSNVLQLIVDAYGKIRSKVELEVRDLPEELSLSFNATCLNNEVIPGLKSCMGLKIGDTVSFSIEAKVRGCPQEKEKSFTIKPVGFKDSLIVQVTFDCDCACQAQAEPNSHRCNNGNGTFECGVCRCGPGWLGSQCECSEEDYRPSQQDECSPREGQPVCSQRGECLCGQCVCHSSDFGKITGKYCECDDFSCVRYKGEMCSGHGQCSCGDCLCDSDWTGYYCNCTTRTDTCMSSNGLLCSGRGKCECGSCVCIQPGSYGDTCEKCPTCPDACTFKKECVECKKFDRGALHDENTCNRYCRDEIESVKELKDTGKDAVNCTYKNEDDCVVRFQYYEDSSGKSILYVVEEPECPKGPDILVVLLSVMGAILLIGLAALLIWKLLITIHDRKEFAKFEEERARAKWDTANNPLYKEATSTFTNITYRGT

[6] = tested on: αvβ3 integrin positive melanoma cells M21; experiment: Cell detachment from vitronectin coated surface; assay type: cell-based; conditions: 4 ng/μl, 4 h at 37° C.
Protocol: FIG. 9: Cell detachment from vitronectin coated surface. For cell detachment assay, 96-well ELISA plates were coated with vitronectin and cells were allowed to attach and spread for 1 h. Then, 4 ng/μl of free DI17E6 or the different unloaded or doxorubicin nanoparticulate formulations were added and the plates were incubated for additional 4 h at 37° C. to induce detachment (concentrations are calculated referred to DI17E6 or equivalent NP amounts). Detached cells were removed and remaining attached cells were stained with CyQUANT GR and counted against untreated control as described in the manufacturer's instructions manual. (Internal control of each experiment n=10, one representative experiment out of 9 independent experiments is shown.)
For cell detachment assays, 96-well ELISA plates were coated with vitronectin as described above. After blocking, cells were allowed to attach and spread for 1 h in cell adhesion medium. Then, 4 ng/μl or 10 ng/μl of either free DI17E6 or the different nanoparticulate formulations (referred to free mAb) were added and the plates were incubated for additional 4 h at 37° C. to induce detachment. Subsequently, plates were washed and processed as for cell adhesion assay. Specific inhibition of attachment or induction of detachment were determined relative to vitronectin-coated surfaces blocked with BSA.

[7] = tested on: αvβ3 integrin positive melanoma cells M21; experiment: Cell attachment on vitronectin coated surface; assay type: cell-based; conditions: 2 ng/μl, 1 h
Protocol: FIG. 8: Cell attachment on vitronectin coated surface. 2 ng/μl of free DI17E6 or the different nanoparticulate formulations were incubated together with the αvβ3 integrin positive melanoma cells M21 on vitronectin coated ELISA plates (concentrations are calculated referred to DI17E6 or equivalent NP amounts). After 1 h of incubation non-adherent cells were removed. Remaining attached cells were stained with CyQUANT GR and counted against untreated control as described in the manufacturer's instructions manual. (Internal control of each experiment n=10, one representative experiment out of 3 independent experiments is shown.)
αvβ3 integrin positive melanoma cells M21 were grown on vitronectin (MoBiTec, Göttingen, Germany) coated ELISA plates (Nunc, Wiesbaden, Germany). Therefore, ELISA 96-well plates were coated with 1 μg/ml vitronectin for 1 h at 37° C. Plates were blocked with 1% heat inactivated BSA (PAA, Cölbe, Germany) and incubated with either 2 ng/μl of free DI17E6 or the different nanoparticulate formulations (referred to free mAb) together with the cells in cell adhesion medium (RPMI 1640 with 2 mM L-glutamine supplemented with 1% BSA). […] Remaining attached cells were stained with CyQUANT GR (Invitrogen, Karlsruhe) and counted against untreated control in a microtiter ELISA reader as described in the manufacturer instructions manual.

In the case of `COc1cccc2c1C(=O)c1c(O)c3c(c(O)c1C2=O)C[C@@](O)(C(=O)CO)C[C@@H]3O[C@H]1C[C@H](N)[C@H](O)[C@H](C)O1` [free doxorubicin, doxorubicin, reference compound], the IC50 ([1]; read-out: IC-50 M21L) is reported as 0.0707 ± 0.0008 µg/mL (≈ 0.13 µM), the IC50 ([2]; Homo sapiens, M21, read-out: IC-50 M21) is reported as 0.0575 ± 0.0037 µg/mL (≈ 0.106 µM) and the “Cell death [h after incubation]” value [3] is reported as 17 h. For the same compound, the “Cellular uptake and intracellular distribution” value [4] was “Red doxorubicin fluorescence can be detected”.
“NP-Dox-DI17E6 (doxorubicin-loaded HSA nanoparticles with DI17E6 covalently coupled on the surface)” was tested, and the IC-50 of MTT cell viability assay on M21 cells (referred to doxorubicin) [5] was 8 ng/mL.
In the case of “free DI17E6: deimmunized version of monoclonal mouse antibody 17E6, directed against αv integrins (SEQ ID No. 1 and 2)”, the “IC-50 M21L” value ([1]; MTT, reduce cell viability by 50%, M21L cells) is reported as greater than 100 ng/mL, the “IC-50 M21” value ([2]; MTT, reduce cell viability by 50%, M21 cells) is reported as greater than 100 ng/mL and the “Cell detachment from vitronectin coated surfaces” value [6] is reported as “cell detachment of αvβ3 positive melanoma cells M21 from vitronectin coated surfaces is also possible”. The “Inhibition of cell attachment to vitronectin coated surfaces” value [7] was “inhibits the attachment of the M21 cells to vitronectin coated surfaces”.
